Assay results reported in the NIST ThermoML archive (doi:10.1016/j.fluid.2017.10.025).
Numbers after ± are expanded uncertainties.

What was measured:
[1] = refractive index (Na D-line) (dimensionless); settings: 298.15 K; 101.33 kPa; Liquid; 2AWJ refractometer
[2] = 293.15 K; 101.33 kPa; Liquid; buoyancy

## C=CCO [2-propenol]
[1]
  refractive index: 1.4129 ± 0.0003
[2]
  mass density: 855 ± 0.7 kg/m3

## O [water]
[1]
  refractive index: 1.3327 ± 0.0002
[2]
  mass density: 998.3 ± 0.6 kg/m3
